Measurements as given in patent US12628856B2, “Nutritional composition having lipophilic compounds with improved solubility and bioavailability” (Abbott Laboratories, priority 2013, dated 2026).

Columns and labels:
Assay type in all cases: physicochemical
[1] = Bound lipophile index (SEC peak area ratio 280 nm/214 nm); details: Example 35 model systems
Procedure: The size exclusion chromatography (SEC) system used in the following Examples is as follows: Column: Superdex Peptide 10/300 GL, GE Healthcare P/N 17-5176-01; Mobile Phase: 700 mL Milli-Q Plus water, 300 mL acetonitrile; 1.0 mL trifluoroacetic acid; Flow Rate: 0.4 mL/minute; Temperature: ambient (˜21° C.); Detection: UV light at 214 nm, 280 nm; visible light at 476 nm; Injection: 10 μL; Run Time: 70 minutes; Sample Preparation: dilute 0.6-1.1 g to 10 mL with Mobile Phase; Calibration: by 6 purified reference proteins, 14.2-160 kD.
The bound lipophile index is determined as follows: a non-specific indicator of lipophilic nutrients (including lutein and any combination of other oil soluble vitamins) in the high MW protein peak (described above). […]
A study was conducted to evaluate the effect of relative centrifugal force (RCF) on analyzing the high molecular weight lutein assembly in the aqueous phase. […] The compositions were then assessed for high molecular weight lutein assembly and the presence of protein >137 kD as done above, as well as bound lipophile index. Bound lipophile index, a relative marker for of lipophilic nutrients in the high molecular weight assembly, was determined as the peak ratio, 280 nm/214 nm for protein >137 kD.

[2] = Distribution of lutein and MDG in cream, aqueous and pellet layers after 100,000×g (Example 58); details: 100,000×g for 1 hour; wt % of the nutritional composition
Procedure: A study was conducted to investigate the distribution of lutein and MDG within the nutritional compositions. Sample were prepared using homogenization at 150/20 bar, and then centrifuged at 100,000×g for 1 hour. The different layers (e.g., cream, aqueous, and pellet) were then analyzed for the presence of lutein and MDG.

[3] = Centrifugation/ultrafiltration analysis of lutein and MDG distribution (Example 60); details: centrifugation at 100,000×g
Procedure: A study was conducted to further investigate the distribution of lutein and MDG within the nutritional composition. Samples included MDG/lutein/water; MDG/lutein/NFDM/water; MDG/lutein/WPC/water; and MDG/water.
The premixes were provided as follows: in samples that contained lutein, lutein was heated for 2 h at 50° C. with shaking. […] In samples that contained protein, non-fat dried milk was added to water (50-60° C.) with agitation and allowed to hydrate for approximately 10 min.
The samples were prepared as follows: for solution 1, water was heated to 50-60° C., an lutein in GMO-40 blend and turrax (30 sec 10000 rpm) was added; for solution 2, NFDM was placed in water solution heated to 50-60° C., and lutein was added in GMO-40 blend and turrax (30 sec 10000 rpm); for solution 3, water was heated to 50-60° C., and GMO-40 blend and turrax (30 sec 10000 rpm) was added. The solutions are listed in the table below as X.1, wherein 1 is the solution.
Samples were formulated as detailed above, and then characterized by ultrafiltration with various membranes, as well as ultracentrifuged at various times and speed (e.g., 100,000×g, 4,500×g, and 1,000×g). The details of the different centrifugation/filtration method are listed below. […]

Row | Compound | bound lipophile index when choline was present [1] | present in the aqueous phase following centrifugation [2] | lutein in the aqueous phase ([3]; samples containing only lutein and MDG) | lutein in the aqueous phase ([3]; samples containing protein)
1 | C[N+](C)(C)CCO [choline] | decreased |  |  | 
2 | CC1=C[C@H](O)CC(C)(C)[C@H]1/C=C/C(C)=C/C=C/C(C)=C/C=C/C=C(C)/C=C/C=C(C)/C=C/C1=C(C)C[C@@H](O)CC1(C)C [lutein] |  | approximately 4 wt % | negligible | only found in the aqueous phase of samples containing protein
